Source: patent US20230129485A1, “SYSTEM AND METHOD FOR DETERMINING MATERIAL PROPERTIES OF MOLECULAR SYSTEMS FROM AN AB-INITIO PARAMETERIZED FORCE-FIELD” (InterX, Inc., priority 2021, published 2023)
Where two headings read alike, the source gives them in different places.

Experiments:
[1] = Free energy of hydration by Free Energy Machine Learning Model (FML); conditions: absolute error vs Exp (hydration)
From the text: Machine learning models can be used for free energy determination.

[2] = experimental, cited from earlier work
[3] = CHEX/H2O partition coefficient (log D) predicted with the QM-parameterized force field model (ARROW FF)
Method in brief: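 Cyclohexane/water partition coefficients were predicted by molecular simulation with a QM-parameterized force field, with bonded force constants and equilibrium values fitted to MP2/aug-cc-pVTZ energies. Solutes carried neutral functional groups, and results from four independent groups were averaged.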

[4] = implicit solvent model, values received; cited from earlier work
[5] = Free energy of hydration by Solvation Model Dielectric (SMD) implicit solvent model; conditions: absolute error vs Exp (hydration)
Method in brief: (§1)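 Hydration energies come from continuum solvent models. Those for COSMO were computed with MolPro. SMD and PCM results were received, and the SMD, PCM and COSMO-RS sets each cover just the molecules in common with the QM-parameterized force-field calculations.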

[6] = Free energy of hydration by COSMO implicit solvent model (MolPro ver. 2012); conditions: absolute error vs Exp (hydration)
Method in brief: as §1

[7] = Free energy of hydration by Polarizable Continuum Model (PCM); conditions: absolute error vs Exp (hydration)
Method in brief: as §1

[8] = Free energy of hydration by COSMO-RS
Method in brief: as §1

[9] = implicit solvent model, values received; cited from earlier work; remark: listed apart in the source
[10] = CHEX/H2O partition coefficient, experimental, cited from earlier work; for Exp (log D): Table 3; for logD Exp (logD): Table 4
[11] = experimental, cited from earlier work; for Exp (hydration): Table 5
[12] = Free energy of hydration predicted with the QM-parameterized force field model (ARROW FF), classical MD and PIMD simulation in a water box; conditions: for Arrow PIMD8 Error: absolute error vs Exp (hydration); for Arrow error: Table 5, error of Arrow PIMD8 hydration free energy vs experiment
Method in brief: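 Solute decoupled from solvent in a 32×32×32 Å3 water box (PME, 9 Å cutoffs), electrostatics, exchange-repulsion and dispersion switched off together over 15 lambda points with soft-coring. Steepest-descent minimization, 50 ps equilibration, 1 ns NPT production at 1 atm; classical and path-integral MD. Free energy from BAR and TI.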

[13] = Table 5; free energy of hydration, AMOEBA prediction taken from literature; cited from earlier work
[14] = Free energy of hydration predicted by General Amber Force Field (GAFF), from literature; conditions: Table 5; error of GAFF hydration free energy vs experiment
[15] = Free energy of hydration predicted by polarizable AMOEBA force field, from literature; conditions: Table 5; error of AMOEBA hydration free energy vs experiment
[16] = Table 5; free energy of hydration, GAFF prediction taken from literature; cited from earlier work
[17] = Free energy of solvation in cyclohexane predicted with the QM-parameterized force field model (ARROW FF), MD and PIMD; conditions: Table 4; for CHEX Arrow MD Error: error of MD cyclohexane solvation free energy vs experiment; for CHEX Arrow PIMD4 Error: error of PIMD4 cyclohexane solvation free energy vs experiment
Method in brief: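 Solute–cyclohexane interactions decoupled over 15 λ points with soft-core scaling, in MD and path-integral simulations under NPT at 1 atm using PME electrostatics and 9 Å cutoffs. Each window had 50 ps equilibration and 1 ns production; free energies from BAR and TI.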

[18] = Table 3, free energy of solvation in cyclohexane
[19] = Table 3, free energy of hydration
[20] = Table 3, absolute error of MD hydration free energy vs experiment
[21] = Table 3, absolute error of PIMD8 hydration free energy vs experiment
[22] = Table 3, absolute error of MD log D vs experiment
[23] = Table 3, absolute error of PIMD log D vs experiment
[24] = Table 4, solvation free energy in cyclohexane
[25] = Table 4, neutral amino-acid analogues
[26] = Table 4, error of MD hydration free energy vs experiment
[27] = Table 4, error of PIMD8 hydration free energy vs experiment

## CCCC(C)=O [2-Pentanone]
[1]
  FML error: 0.29 kcal/mol
[2]; [18]
  CHEX Exp (solvation): -4.19 kcal/mol
[3]
  log D Arrow MD Error: 0.22
  log D Arrow PIMD Error: 0.20
[4]
  PCM free energy of hydration: -4.00 kcal/mol
[5]
  SMD Error: 0.18 kcal/mol
[6]
  COSMO/Molpro Error: 4.22 kcal/mol
[7]
  PCM Error: 0.48 kcal/mol
[8]
  COSMO-RS error: 0.07 kcal/mol
[9]
  SMD free energy of hydration: -3.70 kcal/mol
[10]
  Exp (log D): 0.49
[11]; [19]
  water Exp (hydration): -3.52 kcal/mol
[12]; [20]
  water Arrow MD Error: 0.67 kcal/mol
[12]; [21]
  water Arrow PIMD8 Error: 0.01 kcal/mol
[12]
  Arrow PIMD8 Error: 0.01 kcal/mol

## CCC(=O)CC [3-Pentanone]
[1]
  FML error: 0.16 kcal/mol
[2]; [18]
  CHEX Exp (solvation): -4.30 kcal/mol
[3]
  log D Arrow MD Error: 0.32
  log D Arrow PIMD Error: 0.02
[4]
  PCM free energy of hydration: -3.70 kcal/mol
[5]
  SMD Error: 0.09 kcal/mol
[6]
  COSMO/Molpro Error: 3.33 kcal/mol
[7]
  PCM Error: 0.29 kcal/mol
[8]
  COSMO-RS error: 0.06 kcal/mol
[9]
  SMD free energy of hydration: -3.50 kcal/mol
[10]
  Exp (log D): 0.65
[11]; [19]
  water Exp (hydration): -3.41 kcal/mol
[12]; [20]
  water Arrow MD Error: 0.88 kcal/mol
[12]; [21]
  water Arrow PIMD8 Error: 0.23 kcal/mol
[12]
  Arrow PIMD8 Error: 0.23 kcal/mol

## CC(C)=O [Acetone]
[1]
  FML error: 0.34 kcal/mol
[2]; [18]
  CHEX Exp (solvation): -2.67 kcal/mol
[3]; [22]
  log D Arrow MD Error: 0.01
[3]; [23]
  log D Arrow PIMD Error: 0.31
[4]
  PCM free energy of hydration: -4.20 kcal/mol
[5]
  SMD Error: 0.30 kcal/mol
[6]
  COSMO/Molpro Error: 4.55 kcal/mol
[7]
  PCM Error: 0.40 kcal/mol
[8]
  COSMO-RS error: 0.90 kcal/mol
[9]
  SMD free energy of hydration: -4.10 kcal/mol
[10]
  Exp (log D): −0.83
[11]; [19]
  water Exp (hydration): -3.80 kcal/mol
[12]; [20]
  water Arrow MD Error: 0.33 kcal/mol
[12]; [21]
  water Arrow PIMD8 Error: 0.31 kcal/mol
[12]
  Arrow PIMD8 Error: 0.31 kcal/mol

## CC [Ethane]
[1]
  FML error: 0.85 kcal/mol
[13]
  AMOEBA: 1.73 kcal/mol
[4]
  PCM free energy of hydration: -0.10 kcal/mol
[5]
  SMD Error: 0.01 kcal/mol
[6]
  COSMO/Molpro Error: 2.19 kcal/mol
[7]
  PCM Error: 1.89 kcal/mol
[8]
  COSMO-RS error: 0.02 kcal/mol
[14]
  GAFF error: 0.79 kcal/mol
[9]
  SMD free energy of hydration: 1.80 kcal/mol
[15]
  AMOEBA error: 0.06 kcal/mol
[11]; [19]
  water Exp (hydration): 1.79 kcal/mol
[11]; free energy of hydration
  Exp (hydration): 1.79 kcal/mol
[12]; [20]
  water Arrow MD Error: 0.42 kcal/mol
[12]; [21]
  water Arrow PIMD8 Error: 0.12 kcal/mol
[12]
  Arrow error: 0.12 kcal/mol
  Arrow PIMD8 Error: 0.12 kcal/mol
[16]
  GAFF: 2.58 kcal/mol

## CC(C)C [Isobutane]
[1]
  FML error: 0.12 kcal/mol
[2]; [18]
  CHEX Exp (solvation): -2.61 kcal/mol
[2]; [24]
  CHEX Exp (solvation): -2.61 kcal/mol
[17]
  CHEX Arrow MD Error: 0.33 kcal/mol
  CHEX Arrow PIMD4 Error: 0.10 kcal/mol
[3]
  log D Arrow MD Error: 0.44
  log D Arrow PIMD Error: 0.06
  logD Arrow MD Error: 0.44
  logD Arrow PIMD Error: 0.06
[4]
  PCM free energy of hydration: -0.20 kcal/mol
[5]
  SMD Error: 0.28 kcal/mol
[6]
  COSMO/Molpro Error: 2.28 kcal/mol
[7]
  PCM Error: 2.48 kcal/mol
[8]
  COSMO-RS error: 0.14 kcal/mol
[9]
  SMD free energy of hydration: 2.00 kcal/mol
[10]
  Exp (log D): 3.59
  logD Exp (logD): 3.59
[11]; [19]
  water Exp (hydration): 2.28 kcal/mol
[11]; [25]
  water Exp (hydration): 2.28 kcal/mol
[12]; [20]
  water Arrow MD Error: 0.93 kcal/mol
[12]; [21]
  water Arrow PIMD8 Error: 0.02 kcal/mol
[12]; [26]
  water Arrow MD Error: 0.93 kcal/mol
[12]; [27]
  water Arrow PIMD8 Error: 0.02 kcal/mol
[12]
  Arrow PIMD8 Error: 0.02 kcal/mol

## CNC(C)=O [N-Methylacetamide]
[1]
  FML error: 1.89 kcal/mol
[13]
  AMOEBA: -8.66 kcal/mol
[4]
  PCM free energy of hydration: -6.60 kcal/mol
[5]
  SMD Error: 1.40 kcal/mol
[6]
  COSMO/Molpro Error: 3.10 kcal/mol
[7]
  PCM Error: 3.40 kcal/mol
[8]
  COSMO-RS error: 0.27 kcal/mol
[14]
  GAFF error: 1.61 kcal/mol
[9]
  SMD free energy of hydration: -8.60 kcal/mol
[15]
  AMOEBA error: 1.34 kcal/mol
[11]; [19]
  water Exp (hydration): -10 kcal/mol
[11]; free energy of hydration
  Exp (hydration): -10.00 kcal/mol
[12]; [20]
  water Arrow MD Error: 1.52 kcal/mol
[12]; [21]
  water Arrow PIMD8 Error: 0.49 kcal/mol
[12]
  Arrow error: 0.49 kcal/mol
  Arrow PIMD8 Error: 0.49 kcal/mol
[16]
  GAFF: -8.39 kcal/mol

## c1cc[nH]c1 [Pyrrole]
[1]
  FML error: 2.22 kcal/mol
[13]
  AMOEBA: -3.80 kcal/mol
[6]
  COSMO/Molpro Error: 2.42 kcal/mol
[8]
  COSMO-RS error: 0.96 kcal/mol
[14]
  GAFF error: 0.93 kcal/mol
[15]
  AMOEBA error: 1.00 kcal/mol
[11]; [19]
  water Exp (hydration): -4.8 kcal/mol
[11]; free energy of hydration
  Exp (hydration): -4.80 kcal/mol
[12]; [20]
  water Arrow MD Error: 0.08 kcal/mol
[12]; [21]
  water Arrow PIMD8 Error: 0.63 kcal/mol
[12]
  Arrow error: 0.63 kcal/mol
  Arrow PIMD8 Error: 0.63 kcal/mol
[16]
  GAFF: -3.87 kcal/mol

## CCCCC(C)=O [hexa2none]
[1]
  FML error: 0.07 kcal/mol
[2]; [18]
  CHEX Exp (solvation): -4.77 kcal/mol
[3]; [22]
  log D Arrow MD Error: 0.07
[3]; [23]
  log D Arrow PIMD Error: 0.11
[4]
  PCM free energy of hydration: -4.00 kcal/mol
[5]
  SMD Error: 0.22 kcal/mol
[6]
  COSMO/Molpro Error: 4.43 kcal/mol
[7]
  PCM Error: 0.72 kcal/mol
[8]
  COSMO-RS error: 0.17 kcal/mol
[9]
  SMD free energy of hydration: -3.50 kcal/mol
[10]
  Exp (log D): 1.09
[11]; [19]
  water Exp (hydration): -3.28 kcal/mol
[12]; [20]
  water Arrow MD Error: 0.69 kcal/mol
[12]; [21]
  water Arrow PIMD8 Error: 0.20 kcal/mol
[12]
  Arrow PIMD8 Error: 0.20 kcal/mol

## Cc1ccccc1O [o-cresol]
[1]
  FML error: 0.19 kcal/mol
[2]; [18]
  CHEX Exp (solvation): -6.02 kcal/mol
[3]; [22]
  log D Arrow MD Error: 0.67
[3]; [23]
  log D Arrow PIMD Error: 0.14
[4]
  PCM free energy of hydration: -3.70 kcal/mol
[5]
  SMD Error: 1.27 kcal/mol
[6]
  COSMO/Molpro Error: 1.21 kcal/mol
[7]
  PCM Error: 2.17 kcal/mol
[9]
  SMD free energy of hydration: -4.60 kcal/mol
[10]
  Exp (log D): 0.11
[11]; [19]
  water Exp (hydration): -5.87 kcal/mol
[12]; [20]
  water Arrow MD Error: 1.27 kcal/mol
[12]; [21]
  water Arrow PIMD8 Error: 0.28 kcal/mol
[12]
  Arrow PIMD8 Error: 0.28 kcal/mol
[12]; predicted vs experimental free energy of hydration
  hydration error: -1 kcal/mol

## CCC=O [propionaldehyde]
[1]
  FML error: 0.05 kcal/mol
[13]
  AMOEBA: -3.08 kcal/mol
[5]
  SMD Error: 0.33 kcal/mol
[6]
  COSMO/Molpro Error: 4.76 kcal/mol
[7]
  PCM Error: 0.17 kcal/mol
[8]
  COSMO-RS error: 0.26 kcal/mol
[14]
  GAFF error: 0.02 kcal/mol
[15]
  AMOEBA error: 0.35 kcal/mol
[12]; [20]
  water Arrow MD Error: 0.30 kcal/mol
[12]; [21]
  water Arrow PIMD8 Error: 0.25 kcal/mol
[12]
  Arrow error: 0.45 kcal/mol
  Arrow PIMD8 Error: 0.25 kcal/mol
[16]
  GAFF: -3.41 kcal/mol

## CCC(N)=O [propionamide]
[1]
  FML error: 2.21 kcal/mol
[2]; [24]
  CHEX Exp (solvation): -3.77 kcal/mol
[17]
  CHEX Arrow MD Error: 0.48 kcal/mol
  CHEX Arrow PIMD4 Error: 0.34 kcal/mol
[3]; Table 4, error of MD logD vs experiment
  logD Arrow MD Error: 0.54
[3]; Table 4, error of PIMD logD vs experiment
  logD Arrow PIMD Error: 0.12
[6]
  COSMO/Molpro Error: 3.50 kcal/mol
[10]
  logD Exp (logD): −4.13
[11]; [19]
  water Exp (hydration): -9.4 kcal/mol
[11]; [25]
  water Exp (hydration): -9.4 kcal/mol
[12]; [20]
  water Arrow MD Error: 1.21 kcal/mol
[12]; [21]
  water Arrow PIMD8 Error: 0.17 kcal/mol
[12]; [26]
  water Arrow MD Error: 1.21 kcal/mol
[12]; [27]
  water Arrow PIMD8 Error: 0.17 kcal/mol
[12]
  Arrow PIMD8 Error: 0.17 kcal/mol
